Test results taken from US20130310611A1, “PROCESS FOR PRODUCTION OF PHENOLIC POLYMERIZABLE COMPOUND HAVING PHYSIOLOGICAL ACTIVITY” (UHA MIKAKUTO CO., LTD., priority 2010, published 2013).
Where two headings read alike, the source gives them in different places.

What was measured:
[1] = biological target: rat intestine derived lipase; experiment: Lipase inhibitory action test (Lipase kit S); format: biochemical; conditions: 30° C., 10 minutes reaction
Protocol: In order to see the inhibitory action to lipase of the phenolic polymerizable compound, an inhibitory action test using rat intestine derived lipase was performed.
As lipase, one obtained by suspending 100 mg of rat derived intestine acetone powder (manufactured by Sigma-Aldrich Japan) in 1 ml of 100 mM citric acid buffer (pH 6.0), stirred at 4° C. for 1 hour, centrifuging the same (at 15000 rpm for 45 minutes at 4° C.), and then diluting the supernatant by 1500 times was used as a lipase solution.
As samples, p-coumaric acid, ferulic acid, and coffeic acid and the UHA6005, the UHA6006, the UHA7009, the UHA7010, the UHA7011, the UHA8015, and the UHA9020 which were already purified were used. With respect to the preparation of the samples, each compound was dissolved in DMSO, and then prepared in such a manner as to achieve 0.1 mM, 0.5 mM, 1 mM, 2 mM, and 4 mM.
For measuring the activity, a “Lipase kit S” (Trade name, manufactured by Dainippon Pharmaceutical Co., Ltd.) was used. First, in accordance with a preparation method described in the catalog of the Lipase kit S, a color developing liquid was prepared. Reaction liquids in which 70 μl of the color developing liquid, 2 μl of an esterase inhibitor, 10 μl of the lipase solution, and 10 μl of the samples (Final concentration: 10 μM, 50 μM, 100 μM, 200 μM, 400 μM, and 1000 μM) were mixed were prepared, preincubated at 30° C. for 5 minutes, and then 8 μl of a substrate solution described in the catalog was added. Then, a reaction was started. After reacting for 10 minutes, 150 μl of a reaction stop liquid prepared in accordance with the preparation method described in the catalog of the Lipase kit S was added to stop the reaction. The resultant substance was subjected to a measurement of absorbancy at a wavelength of 415 nm. A reaction liquid to which only DMSO as the solvent of the sample was added was used as a positive control and one to which 10 μl of 100 mM citric acid buffer (pH 6.0) was added instead of the lipase solution was used as a negative control. From the relationship between the lipase inhibition rate calculated based on the data obtained therefrom and the concentration of each compound, the concentration IC50 at which the lipase activity is inhibited by 50% was calculated.

[2] = Solubility (physicochemical properties); conditions: for Solubility: DMSO: solvent DMSO; for Solubility: Chloroform: solvent chloroform; for Solubility: Ethanol: solvent ethanol; for Solubility: Ethyl acetate: solvent ethyl acetate; for Solubility: Methanol: solvent methanol; for Solubility: Water: solvent water
[3] = system: HL-60 cells (human promyelocytic leukemia cells); experiment: Cancer cell growth suppressing action using HL-60 cells (MTT method, Cell counting kit-8); format: cell-based; conditions: 24 hours, 6.3-100 μM, read-out: Cell growth suppressing ability to HL-60 (IC50)
Protocol: Next, in order to see the effect of the phenolic polymerizable compound to cancer cells, cancer cell growth suppressing action using HL-60 cells (human promyelocytic leukemia cells) was tested.
For culturing the HL-60 cells, an enriched culture medium “RPMI-1640” (manufactured by Sigma-Aldrich Japan) containing 4 mM glutamine (L-Glutamine, manufactured by Sigma-Aldrich Japan) and 10% FBS (Foetal Bovine Serum, manufactured by Biological Industries) was used. For the test, a 96-well plate for cell culture (manufactured by Corning Japan) was used, and the HL-60 cells whose number of cells was adjusted to be 5×10^5 cells/mL were seeded at 100 μL per well.
As samples, p-coumaric acid, ferulic acid, coffeic acid, and sinapic acid, and the UHA6005, the UHA6006, the UHA7004, the UHA7009, the UHA7010, the UHA7011, the UHA8015, the UHA9019, and the UHA9020 which were already purified were used. With respect to the preparation of the samples, each compound was dissolved in DMSO (Wako Pure Chemical Industries, Ltd.), and then adjusted in such a manner that the final concentration in the HL-60 cell culture solutions was 6.3 μM, 12.5 μM, 25 μM, 50 μM, and 100 μM. Then, the test was started.
The number of viable cells was quantified by an MTT method using a “Cell counting kit-8” (manufactured by DOJINDO LABORATORIES). 24 hours after starting the test, 10 μl of a Cell counting kit-8 solution was added to each well, and then sufficiently stirred. After a shading reaction for 1 hour, the absorbancy was measured at a measurement wavelength of 450 nm using a plate leader (Biorad Laboratories, Inc., “BIO-RAD Model 680”). Then, the cell viability was calculated based on the obtained data. The cell viability is a value obtained by setting the number of viable cells of the culture liquid to which only DMSO as a solvent was added to 100%, and then calculating the number of viable cells under the concentration of each compound as a relative value. From the relationship between the concentration of each compound and the cell viability, the concentration IC50 (50% inhibition concentration) at which the cell growth is suppressed by 50% was calculated.

[4] = system: SCC-4 cells (human oral cancer cells, ATCC); experiment: Cancer cell growth suppressing action using SCC-4 cells (MTT method, Cell counting kit-8); format: cell-based; conditions: 6.3-100 μM, read-out: Cell growth suppressing ability (IC50)
Protocol: Next, in order to see the effect of the phenolic polymerizable compound to oral cancer cells, cancer cell growth suppressing action using SCC-4 cells (human oral cancer cells, ATCC) was tested.
For culturing the SCC-4 cells, a DMEM/F-12 (1:1) culture medium (manufactured by GIBCO) containing 400 ng/mL hydrocortisone (manufactured by Sigma-Aldrich Japan), 1% antibiotic-antimycotic (manufactured by GIBCO), and 10% FBS (Foetal Bovine Serum, manufactured by ATCC) was used. For the test, a collagen I coat 96 well plate for cell culture (manufactured by Japan BD) was used, and SCC-4 cells whose number of cells was adjusted to be 5×10^5 cells/mL were seeded at 100 μL per well. The cells were cultured under the conditions of 37° C. and 5% CO2 for 24 hours, and were used for the test in a confluent state of 80% or higher.
As samples, p-coumaric acid and coffeic acid and the UHA6005, the UHA7009, the UHA7010, and the UHA7011 which were already purified were used. With respect to the preparation of the samples, each compound was dissolved in DMSO, and then prepared in such a manner as to achieve 0.63 mM, 1.25 mM, 2.5 mM, 5 mM, and 10 mM. The samples were added in such a manner that the final concentration in the SCC-4 cell culture solution was 6.3 μM, 12.5 μM, 25 μM, 50 μM, and 100 μM. Then, the test was started. A sample to which an equivalent amount of only DMSO as the solvent was added was used as a negative control.
The number of viable cells was quantified by an MTT method using a “Cell counting kit-8” in the same manner as in Example 18, and the concentration IC50 at which the cell growth is suppressed by 50% was calculated.

Compound | IC50 [1] [µM] | Solubility: DMSO [2] | Solubility: Chloroform [2] | Solubility: Ethanol [2] | Solubility: Ethyl acetate [2] | Solubility: Methanol [2] | Solubility: Water [2] | IC50 ([3]; Homo sapiens) [µM] | IC50 ([4]; Homo sapiens) [µM] | IC50 [3] [µM] | IC50 [4] [µM]
CC(CC(/C=C/c1ccc(O)cc1)c1ccc(O)cc1)c1ccc(O)cc1 (centres unmarked) [UHA7010] | 60.4 | Soluble | Soluble | Soluble | Soluble | Soluble | Poorly soluble | 35.3 | 61.1 | – | –
COc1cc(C(C)/C=C/c2ccc(O)cc2)ccc1O (single isomer, unassigned) [UHA8015] | 350 | Soluble | Soluble | Soluble | Soluble | Soluble | Non-soluble | 74.3 | – | – | –
COc1cc(/C=C/C(C)c2cc(OC)c(O)c(OC)c2)cc(OC)c1O (centres unmarked) [UHA9019] | – | Soluble | Soluble | Soluble | Soluble | Soluble | Poor soluble | 66.2 | – | – | –
COc1cc(/C=C/C(=O)O)cc(OC)c1O [Sinapic acid, reference compound] | – | – | – | – | – | – | – | > 100 | – | – | –
O=C(O)/C=C/c1ccc(O)cc1 [p-coumaric acid, reference compound] | > 1000 | – | – | – | – | – | – | > 100 | > 100 | – | –
CC(/C=C/c1ccc(O)c(C(C)c2ccc(O)cc2)c1)c1ccc(O)cc1 (centres unmarked) [UHA7011] | 197 | Soluble | Soluble | Soluble | Soluble | Soluble | Poorly soluble | 35.4 | 40.8 | – | –
CC(/C=C/c1ccc(O)cc1)c1ccc(O)cc1 (centres unmarked) [UHA7009] | 438 | Soluble | Soluble | Soluble | Soluble | Soluble | Poorly soluble | 49.3 | 72.9 | – | –
COc1cc(/C=C/C(=O)O)ccc1O [Ferulic acid, reference compound] | > 1000 | – | – | – | – | – | – | > 100 | – | – | –
O=C(O)/C=C/c1ccc(O)c(O)c1 [Coffeic acid, reference compound] | > 1000 | – | – | – | – | – | – | – | – | > 100 | > 100
COc1cc(/C=C/C(C)c2ccc(O)c(OC)c2)ccc1O (centres unmarked) [UHA7004] | – | Soluble | Soluble | Soluble | Soluble | Soluble | Poorly soluble | 17.6 | – | – | –
CC(/C=C/c1cc(O)c(O)cc1C(C)c1ccc(O)c(O)c1)c1ccc(O)c(O)c1 (centres unmarked) [UHA6006] | 188 | Soluble | Soluble | Soluble | Soluble | Soluble | Poorly soluble | 42.4 | – | – | –
CC(/C=C/c1ccc(O)c(O)c1)c1ccc(O)c(O)c1 (centres unmarked) [UHA6005] | 253 | Soluble | Soluble | Soluble | Soluble | Soluble | Poorly soluble | 43.7 | 69.7 | – | –
COc1cc(/C=C/C(C)c2ccc(O)c(O)c2)ccc1O (centres unmarked) [UHA9020] | 118 | Soluble | Soluble | Soluble | Soluble | Soluble | Non-soluble | 38.5 | – | – | –
